How the values were obtained:
A. thaliana MTR kinase = target: T1, A. thaliana MTR kinase (Arabidopsis thaliana, UniProt Q9C6D2); experiment: X-ray crystallography, […] Å, co-crystallization; assay type: binding; details: crystal soaked at pH 6.5
T1 construct: gene MTK; full length, 420 residues; homodimer
T1 sequence (Q9C6D2 1-420): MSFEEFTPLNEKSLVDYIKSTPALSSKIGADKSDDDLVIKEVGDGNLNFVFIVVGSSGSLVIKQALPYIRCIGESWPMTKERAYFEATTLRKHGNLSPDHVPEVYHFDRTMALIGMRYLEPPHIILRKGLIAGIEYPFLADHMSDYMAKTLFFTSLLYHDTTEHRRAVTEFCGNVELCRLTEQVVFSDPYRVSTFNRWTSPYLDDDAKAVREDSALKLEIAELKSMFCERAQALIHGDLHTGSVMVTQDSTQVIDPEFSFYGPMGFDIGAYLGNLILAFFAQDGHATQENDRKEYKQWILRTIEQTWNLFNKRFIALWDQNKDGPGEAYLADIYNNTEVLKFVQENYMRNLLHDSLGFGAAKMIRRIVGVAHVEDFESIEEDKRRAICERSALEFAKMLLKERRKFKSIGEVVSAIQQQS

[1] = target: the molecule itself; experiment: SEC; size exclusion chromatography of A. thaliana MTR kinase, data not shown; conditions not given

Nc1ncnc2c1ncn2[C@@H]1O[C@H](COP(=O)(O)OP(=O)(O)O)[C@@H](O)[C@H]1O [ADP]
X-ray crystallography, 1.9 Å, co-crystallization (A. thaliana MTR kinase; nucleotide site, from ATPγS hydrolysed during co-crystallization, two Mg(II), MTR bound): coordinates of the A. thaliana MTR kinase in complex with ADP and MTR

CSC[C@H]1OC(O)[C@H](O)[C@@H]1O (stereo partly drawn) [MTR]
X-ray crystallography, 1.9 Å, co-crystallization (A. thaliana MTR kinase; active site, co-crystallized with ATPγS and MTR, Mg(II) and ADP bound, alpha anomer): coordinates of the A. thaliana MTR kinase in complex with ADP and MTR

B1: Arabidopsis thaliana 5-methylthioribose kinase (enzyme, UniProt Q9C6D2 1-420, looked up)
chain: T1 sequence (Q9C6D2 1-420)
notes: 5-methylthioribose (MTR) kinase of Arabidopsis thaliana, 420 residues; residues 1 and 420 are named as part of the crystallised protein (not modelled); also called A. thaliana MTR kinase; MTR kinase
stoichiometry N [1]: 2

Reference: paper PMC2194712, “Structure of Arabidopsis thaliana 5-methylthioribose kinase reveals a more occluded active site than its bacterial homolog” (BMC Structural Biology, 2007)
